Assay results reported in the supplement of paper PMC10307832.

How the values were obtained:
Test in all cases: relative viability (nuclei count vs DMSO), 5 days (fraction); higher = more cells survive
[1] = system: HCC-44
Outline: (§1)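 Medians of duplicate plates are given as relative viability. That measure is the nuclei count in treated wells divided by the count in vehicle wells. Counts were taken on 4× images of lung cancer cell lines in 1536-well plates, 5 days after pin-tool dosing the day after seeding with one drug alone or a fixed anchor-drug dose plus five library-drug doses (not always all listed) in √10 steps.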

[2] = system: COR-L23
Outline: as §1

[3] = system: NCI-H2023
Outline: as §1

[4] = system: NCI-H1944
Outline: as §1

[5] = system: NCI-H650
Outline: as §1

[6] = system: ChaGo-K-1
Outline: as §1

[7] = system: NCI-H838
Outline: as §1

[8] = system: NCI-H2087
Outline: as §1

[9] = system: NCI-H1651
Outline: as §1

[10] = system: EPLC-272H
Outline: as §1

[11] = system: H3255
Outline: as §1

[12] = system: NCI-H2405
Outline: as §1

[13] = system: NCI-H1563
Outline: as §1

[14] = system: LCLC-103H
Outline: as §1

[15] = system: HCC-827
Outline: as §1

[16] = system: EMC-BAC-2
Outline: as §1

[17] = system: NCI-H2085
Outline: as §1

[18] = system: NCI-H520
Outline: as §1

[19] = system: SK-MES-1
Outline: as §1

[20] = system: LU99A
Outline: as §1

CC(=O)O[C@@]12CO[C@@H]1C[C@H](O)[C@@]1(C)C(=O)[C@H](O)C3=C(C)[C@@H](OC(=O)[C@H](O)[C@@H](NC(=O)OC(C)(C)C)c4ccccc4)C[C@@](O)([C@@H](OC(=O)c4ccccc4)[C@H]21)C3(C)C [Docetaxel] + C[C@@H](Oc1cc(-c2cnn(C3CCNCC3)c2)cnc1N)c1c(Cl)ccc(F)c1Cl [Crizotinib] (partner 1 µM)
relative viability ([1]; first compound 0.0002 µM): 0.805
relative viability ([1]; first compound 0.000632 µM): 0.536
relative viability ([1]; first compound 0.002 µM): 0.483
relative viability ([1]; first compound 0.006325 µM): 0.195
relative viability ([1]; first compound 0.02 µM): 0.12
relative viability ([2]; first compound 0.0002 µM): 0.536
relative viability ([2]; first compound 0.000632 µM): 0.483
relative viability ([2]; first compound 0.002 µM): 0.111
relative viability ([2]; first compound 0.006325 µM): 0.132
relative viability ([2]; first compound 0.02 µM): 0.0806
relative viability ([3]; first compound 0.0002 µM): 0.587
relative viability ([3]; first compound 0.000632 µM): 0.451
relative viability ([3]; first compound 0.002 µM): 0.123
relative viability ([3]; first compound 0.006325 µM): 0.096
relative viability ([3]; first compound 0.02 µM): 0.0789
relative viability ([4]; first compound 0.0002 µM): 1.13
relative viability ([4]; first compound 0.000632 µM): 1.01
relative viability ([4]; first compound 0.002 µM): 0.956
relative viability ([4]; first compound 0.006325 µM): 0.192
relative viability ([4]; first compound 0.02 µM): 0.137
relative viability ([5]; first compound 0.0002 µM): 0.504
relative viability ([5]; first compound 0.000632 µM): 0.356
relative viability ([5]; first compound 0.002 µM): 0.253
relative viability ([5]; first compound 0.006325 µM): 0.208
relative viability ([5]; first compound 0.02 µM): 0.204
relative viability ([6]; first compound 0.0002 µM): 1.06
relative viability ([6]; first compound 0.000632 µM): 0.813
relative viability ([6]; first compound 0.002 µM): 0.457
relative viability ([6]; first compound 0.006325 µM): 0.339
relative viability ([6]; first compound 0.02 µM): 0.263
relative viability ([7]; first compound 0.0002 µM): 0.856
relative viability ([7]; first compound 0.000632 µM): 0.7
relative viability ([7]; first compound 0.002 µM): 0.155
relative viability ([7]; first compound 0.006325 µM): 0.201
relative viability ([7]; first compound 0.02 µM): 0.124
relative viability ([8]; first compound 0.0002 µM): 0.854
relative viability ([8]; first compound 0.000632 µM): 0.684
relative viability ([8]; first compound 0.002 µM): 0.334
relative viability ([8]; first compound 0.006325 µM): 0.182
relative viability ([8]; first compound 0.02 µM): 0.156
relative viability ([9]; first compound 0.0002 µM): 0.835
relative viability ([9]; first compound 0.000632 µM): 0.876
relative viability ([9]; first compound 0.002 µM): 0.612
relative viability ([9]; first compound 0.006325 µM): 0.168
relative viability ([9]; first compound 0.02 µM): 0.167
relative viability ([10]; first compound 0.0002 µM): 0.832
relative viability ([10]; first compound 0.000632 µM): 0.547
relative viability ([10]; first compound 0.002 µM): 0.321
relative viability ([10]; first compound 0.006325 µM): 0.0867
relative viability ([10]; first compound 0.02 µM): 0.1
relative viability ([11]; first compound 0.0002 µM): 0.654
relative viability ([11]; first compound 0.000632 µM): 0.757
relative viability ([11]; first compound 0.002 µM): 0.376
relative viability ([11]; first compound 0.006325 µM): 0.267
relative viability ([11]; first compound 0.02 µM): 0.252
relative viability ([12]; first compound 0.0002 µM): 0.87
relative viability ([12]; first compound 0.000632 µM): 0.623
relative viability ([12]; first compound 0.002 µM): 0.447
relative viability ([12]; first compound 0.006325 µM): 0.396
relative viability ([12]; first compound 0.02 µM): 0.292
relative viability ([13]; first compound 0.0002 µM): 0.829
relative viability ([13]; first compound 0.000632 µM): 0.926
relative viability ([13]; first compound 0.002 µM): 0.928
relative viability ([13]; first compound 0.006325 µM): 0.799
relative viability ([13]; first compound 0.02 µM): 0.77
relative viability ([14]; first compound 0.0002 µM): 1.19
relative viability ([14]; first compound 0.000632 µM): 1.04
relative viability ([14]; first compound 0.002 µM): 0.776
relative viability ([14]; first compound 0.006325 µM): 0.674
relative viability ([14]; first compound 0.02 µM): 0.756
relative viability ([15]; first compound 0.0002 µM): 0.943
relative viability ([15]; first compound 0.000632 µM): 0.91
relative viability ([15]; first compound 0.002 µM): 0.68
relative viability ([15]; first compound 0.006325 µM): 0.416
relative viability ([15]; first compound 0.02 µM): 0.342
relative viability ([16]; first compound 0.0002 µM): 0.651
relative viability ([16]; first compound 0.000632 µM): 0.401
relative viability ([16]; first compound 0.002 µM): 0.404
relative viability ([16]; first compound 0.02 µM): 0.161
relative viability ([17]; first compound 0.0002 µM): 0.63
relative viability ([17]; first compound 0.000632 µM): 0.706
relative viability ([17]; first compound 0.002 µM): 0.737
relative viability ([17]; first compound 0.006325 µM): 0.415
relative viability ([17]; first compound 0.02 µM): 0.317
relative viability ([18]; first compound 0.0002 µM): 0.672
relative viability ([18]; first compound 0.000632 µM): 0.784
relative viability ([18]; first compound 0.002 µM): 0.196
relative viability ([18]; first compound 0.006325 µM): 0.155
relative viability ([18]; first compound 0.02 µM): 0.156
relative viability ([19]; first compound 0.0002 µM): 0.937
relative viability ([19]; first compound 0.000632 µM): 0.845
relative viability ([19]; first compound 0.002 µM): 0.287
relative viability ([19]; first compound 0.006325 µM): 0.221
relative viability ([19]; first compound 0.02 µM): 0.177
relative viability ([20]; first compound 0.0002 µM): 0.522
relative viability ([20]; first compound 0.000632 µM): 0.401
relative viability ([20]; first compound 0.002 µM): 0.367
relative viability ([20]; first compound 0.006325 µM): 0.278
relative viability ([20]; first compound 0.02 µM): 0.196
